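Protocol summary: plate cells (96-well), add compound at 5 concentrations, incubate 48 h, interpolate endpoints linearly. GI50 = concentration required for 50% inhibition of growth.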 Activity calls are given as the source filed them. Cut-off read from the data, not from the text of the source: active = GI50 up to about 1.1 µM and inactive = higher.
What was measured:
Experiment in all cases: NCI tumour cell line growth inhibition, 48 h
[1] = system: SF-295
[2] = system: SNB-19
[3] = system: KM12
[4] = system: HCT-15
[5] = system: MOLT-4
[6] = system: OVCAR-5
[7] = system: SF-268
[8] = system: A498
[9] = system: OVCAR-4
[10] = system: HT-29
[11] = system: NCI-H23
[12] = system: CAKI-1
[13] = system: CCRF-CEM
[14] = system: K562
[15] = system: UO-31
[16] = system: Malme-3M
[17] = system: NCI-H460
[18] = system: HOP-62
[19] = system: SN12C
[20] = system: UACC-62

Structure (SMILES)	GI50 [1]	GI50 [2]	GI50 [3]	GI50 [4]	GI50 [5]	GI50 [6]	GI50 [7]	GI50 [8]	GI50 [9]	GI50 [10]	GI50 [11]	GI50 [12]	GI50 [13]	GI50 [14]	GI50 [15]	GI50 [16]	GI50 [17]	GI50 [18]	GI50 [19]	GI50 [20]
C=Cc1cc2c(cc1O)CC[C@@H]1[C@@H]2CC[C@]2(C)[C@@H](O)CC[C@@H]12	3.82 µM (inactive)	4.23 µM (inactive)	5.11 µM (inactive)	3.95 µM	3.9 µM (inactive)	21.3 µM (inactive)	4.16 µM (inactive)	24.4 µM (inactive)	11.2 µM (inactive)	15.3 µM (inactive)	3.18 µM (inactive)	7.94 µM (inactive)	4.15 µM (inactive)	3.03 µM (inactive)	7 µM (inactive)	2.18 µM (inactive)	3.94 µM (inactive)	–	–	–
CN1C(=O)CN2C(Cl)(Cl)C2(c2ccccc2)c2cc(Cl)ccc21 (stereo unspecified)	27 µM (inactive)	–	56.5 µM (inactive)	> 100 µM	26.9 µM (inactive)	> 100 µM (inactive)	> 100 µM (inactive)	–	> 100 µM (inactive)	67.5 µM (inactive)	89.1 µM (inactive)	> 100 µM (inactive)	53.7 µM (inactive)	69.2 µM (inactive)	> 100 µM (inactive)	> 100 µM (inactive)	96.2 µM (inactive)	> 100 µM (inactive)	> 100 µM (inactive)	> 100 µM (inactive)
O=c1cnn(CCOCP(=O)(O)O)c(=O)[nH]1	–	> 100 µM (inactive)	> 100 µM (inactive)	–	> 100 µM (inactive)	> 100 µM (inactive)	> 100 µM (inactive)	> 100 µM (inactive)	–	> 100 µM (inactive)	> 100 µM (inactive)	> 100 µM (inactive)	> 100 µM (inactive)	> 100 µM (inactive)	> 100 µM (inactive)	> 100 µM (inactive)	> 100 µM (inactive)	> 100 µM (inactive)	> 100 µM (inactive)	–
CC(C)CCCC(C)[C@H]1CC[C@H]2[C@@H]3CC[C@H]4C[C@@H](CCC=C(c5cc(Cl)c(O)c(C(=O)OC(C)(C)C)c5)c5cc(Cl)c(O)c(C(=O)OC(C)(C)C)c5)CC[C@]4(C)[C@H]3CC[C@]12C (stereo partly specified)	> 50 µM (inactive)	> 50 µM (inactive)	> 50 µM (inactive)	> 50 µM	> 50 µM (inactive)	> 50 µM (inactive)	> 50 µM (inactive)	> 50 µM (inactive)	> 50 µM (inactive)	> 50 µM (inactive)	> 50 µM (inactive)	> 50 µM (inactive)	> 50 µM (inactive)	> 50 µM (inactive)	–	–	–	> 50 µM (inactive)	> 50 µM (inactive)	> 50 µM (inactive)
O=C1CSc2sc(=S)sc2S1	> 24.5 µM (inactive)	> 100 µM (inactive)	> 100 µM (inactive)	> 79.3 µM	> 100 µM (inactive)	> 100 µM (inactive)	> 100 µM (inactive)	31.3 µM (inactive)	> 59.3 µM (inactive)	> 29.2 µM (inactive)	> 100 µM (inactive)	–	> 76.4 µM (inactive)	> 100 µM (inactive)	> 100 µM (inactive)	> 100 µM (inactive)	> 100 µM (inactive)	> 100 µM (inactive)	> 70.1 µM (inactive)	> 100 µM (inactive)
CN(C)c1ccc(/C=N/c2ccc(Oc3ccc(Cl)cc3)c(Cl)c2)cc1	24.7 µM (inactive)	16.4 µM (inactive)	17.1 µM (inactive)	18.9 µM	18.5 µM (inactive)	28.3 µM (inactive)	13.7 µM (inactive)	–	22.1 µM (inactive)	16.1 µM (inactive)	19 µM (inactive)	21.3 µM (inactive)	10.8 µM (inactive)	–	10.7 µM (inactive)	15.3 µM (inactive)	19.5 µM (inactive)	18.7 µM (inactive)	21.6 µM (inactive)	17.5 µM (inactive)
CCCO[C@@H]1[C@@H](OC(C)=O)[C@@H](OC(C)=O)C(C)(C)/C=C/[C@H](C)C(=O)[C@@]2(OC(C)=O)C[C@@](C)(OC(C)=O)[C@H](OC(C)=O)[C@@H]2[C@H]2OC(=O)CC[C@@]12OC(=O)c1ccccc1	10.4 µM (inactive)	> 25 µM (inactive)	> 25 µM (inactive)	> 25 µM	5.13 µM (inactive)	> 25 µM (inactive)	> 25 µM (inactive)	–	> 25 µM (inactive)	5.18 µM (inactive)	> 25 µM (inactive)	17.7 µM (inactive)	4.85 µM (inactive)	4.63 µM (inactive)	> 25 µM (inactive)	17.5 µM (inactive)	6.73 µM (inactive)	> 25 µM (inactive)	> 25 µM (inactive)	> 25 µM (inactive)
CCn1cc(C(c2ccc(Cl)cc2)n2ccnc2)c2cc(Br)ccc21 (stereo unspecified)	10.8 µM (inactive)	14.3 µM (inactive)	11.4 µM (inactive)	12.2 µM	1.85 µM (inactive)	11.7 µM (inactive)	11.2 µM (inactive)	13.4 µM (inactive)	9.64 µM (inactive)	7.55 µM (inactive)	14.5 µM (inactive)	13.7 µM (inactive)	–	4.85 µM (inactive)	6.9 µM (inactive)	17.7 µM (inactive)	–	14.4 µM (inactive)	22.8 µM (inactive)	10.9 µM (inactive)
O=C(Nc1nc2ncn(CCNCc3ccccc3)c2c(=O)[nH]1)c1ccccc1	> 100 µM (inactive)	–	> 100 µM (inactive)	> 100 µM	–	> 100 µM (inactive)	63.8 µM (inactive)	> 100 µM (inactive)	> 100 µM (inactive)	> 100 µM (inactive)	–	> 100 µM (inactive)	> 100 µM (inactive)	> 100 µM (inactive)	50.8 µM (inactive)	> 100 µM (inactive)	> 100 µM (inactive)	> 100 µM (inactive)	> 100 µM (inactive)	> 100 µM (inactive)
CC1=NN(C(=O)c2ccc(Cl)cc2)C(=O)C1/N=N/c1ccc(S(=O)(=O)Nc2ncccn2)cc1 (stereo unspecified)	> 100 µM (inactive)	> 100 µM (inactive)	> 100 µM (inactive)	> 100 µM	> 100 µM (inactive)	> 100 µM (inactive)	> 100 µM (inactive)	–	> 100 µM (inactive)	> 100 µM (inactive)	> 100 µM (inactive)	> 100 µM (inactive)	–	> 100 µM (inactive)	> 100 µM (inactive)	> 100 µM (inactive)	> 100 µM (inactive)	> 100 µM (inactive)	> 100 µM (inactive)	> 100 µM (inactive)
COc1ccc2[nH]c(Cl)c(/C=C3/C(=O)Nc4cc(C)c(OC)cc43)c2c1	1.98 µM (inactive)	8.26 µM (inactive)	3.35 µM (inactive)	2.91 µM	4.32 µM (inactive)	6.93 µM (inactive)	5.75 µM (inactive)	5.82 µM (inactive)	–	4.23 µM (inactive)	5.11 µM (inactive)	7.35 µM (inactive)	3.43 µM (inactive)	4.39 µM (inactive)	12.2 µM (inactive)	5.82 µM (inactive)	3.36 µM (inactive)	5.48 µM (inactive)	7.43 µM (inactive)	3.55 µM (inactive)

Reference: ChEMBL document CHEMBL1201862, “PubChem BioAssay data set” (2004)
